Measurements taken from the Deep4Chem optical property database.
One block for each compound: values may come before it.

Experiment: photoluminescence quantum yield (fraction); solvent given as SMILES

SMILES: c1ccc2c(c1)Oc1ccccc1N2c1ccc2c(c1)c1ccccc1n1ccnc21
- photoluminescence quantum yield (in O=P(c1ccccc1)(c1ccccc1)c1ccccc1Oc1ccccc1P(=O)(c1ccccc1)c1ccccc1): 0.27

SMILES: c1cc2ccc3cccc4c(-c5cc(-c6nccs6)nc(-c6nccs6)c5)cc(c1)c2c34
- photoluminescence quantum yield (in CC#N): 0.645
- photoluminescence quantum yield (in CCCCCC): 0.51
- photoluminescence quantum yield (in CO): 0.214
- photoluminescence quantum yield (in ClC(Cl)Cl): 0.627

SMILES: CC1=C(c2cccs2)C2=Cc3c(-c4cccs4)c(C)c(C)n3[B-](F)(F)[N+]2=C1C
- photoluminescence quantum yield (in CC#N): 0.52

SMILES: CC[N+]1(CC)CN2C(=N1)C(C(=O)O)=Cc1cc(OC)ccc12
- photoluminescence quantum yield (in O): 0.509

SMILES: c1ccc(/C(=C(\c2ccccc2)c2cc(-c3ccc(-c4ccccc4)cc3)ccc2-c2ccc(-c3ccccc3)cc2)c2cc(-c3ccc(-c4ccccc4)cc3)ccc2-c2ccc(-c3ccccc3)cc2)cc1
- photoluminescence quantum yield (in C1CCOC1): 0.32

SMILES: c1ccc(-c2nnc(-c3ccc(N4c5ccccc5Oc5ccccc54)cc3)n2-c2ccccc2)cc1
- photoluminescence quantum yield (in Cc1ccccc1): 0.127

SMILES: CN(C)CCN(Cc1c2ccccc2cc2ccccc12)c1ccc([N+](=O)[O-])cc1[N+](=O)[O-]
- photoluminescence quantum yield (in C1CCCCC1): 0.0001
- photoluminescence quantum yield (in C1CCOC1): 0.0004
- photoluminescence quantum yield (in CC#N): 0.0185
- photoluminescence quantum yield (in CC(C)=O): 0.0043
- photoluminescence quantum yield (in CCO): 0.0087
- photoluminescence quantum yield (in CN(C)C=O): 0.0293
- photoluminescence quantum yield (in CO): 0.0093
- photoluminescence quantum yield (in CS(C)=O): 0.0426
- photoluminescence quantum yield (in ClC(Cl)Cl): 0.0009
- photoluminescence quantum yield (in ClCCl): 0.0057

SMILES: CN(C)c1ccc(/C=C/C=C2\CC/C(=C\c3ccc(N(C)C)cc3)C2=O)cc1
- photoluminescence quantum yield (in C1CCOC1): 0.16
- photoluminescence quantum yield (in CC#N): 0.29
- photoluminescence quantum yield (in CC(C)=O): 0.31
- photoluminescence quantum yield (in CC(C)O): 0.33
- photoluminescence quantum yield (in CCCCCC): 0.007
- photoluminescence quantum yield (in CCCCO): 0.36
- photoluminescence quantum yield (in CCCCOC(C)=O): 0.16
- photoluminescence quantum yield (in CCCO): 0.34
- photoluminescence quantum yield (in CCO): 0.23
- photoluminescence quantum yield (in CCOC(=O)c1ccccc1): 0.24
- photoluminescence quantum yield (in CCOC(C)=O): 0.2
- photoluminescence quantum yield (in CCOCC): 0.073
- photoluminescence quantum yield (in CN(C)C=O): 0.36
- photoluminescence quantum yield (in CO): 0.11
- photoluminescence quantum yield (in CS(C)=O): 0.4
- photoluminescence quantum yield (in Cc1ccccc1): 0.11
- photoluminescence quantum yield (in ClC(Cl)(Cl)Cl): 0.068
- photoluminescence quantum yield (in ClC(Cl)Cl): 0.27
- photoluminescence quantum yield (in ClCCl): 0.36
- photoluminescence quantum yield (in Clc1ccccc1Cl): 0.24
- photoluminescence quantum yield (in S=C=S): 0.13
- photoluminescence quantum yield (in c1ccccc1): 0.13
- photoluminescence quantum yield (in c1ccncc1): 0.38

SMILES: COc1cc(/C=C/c2ccncc2)c(OC)cc1C=O
- photoluminescence quantum yield (in C1CCOC1): 0.11
- photoluminescence quantum yield (in CC#N): 0.17
- photoluminescence quantum yield (in CN(C)C=O): 0.15
- photoluminescence quantum yield (in Cc1ccccc1): 0.09
- photoluminescence quantum yield (in ClCCl): 0.26

SMILES: CC(C)[Si](C#Cc1c2cc3ccccc3cc2c(C#C[Si](C(C)C)(C(C)C)C(C)C)c2nc3c(nc12)C1c2ccccc2C3c2ccccc21)(C(C)C)C(C)C
- photoluminescence quantum yield (in CCCCCC): 0.54

SMILES: O=CC1=C(c2ccc(-c3cccs3)s2)CC1
- photoluminescence quantum yield (in CCO): 0.32

SMILES: CCn1c2ccccc2c2cc(/C=C/c3cc(/C=C/c4ccc5c(c4)c4ccccc4n5CC)ncn3)ccc21
- photoluminescence quantum yield (in C1CCOC1): 0.25
- photoluminescence quantum yield (in CCOC(C)=O): 0.25
- photoluminescence quantum yield (in CN(C)C=O): 0.42
- photoluminescence quantum yield (in Cc1ccccc1): 0.19
- photoluminescence quantum yield (in ClCCl): 0.29

SMILES: CC1=[N+]2C(=C(c3ccc(N4CCOCC4)cc3)c3ccc(C)n3[B-]2(F)F)C=C1
- photoluminescence quantum yield (in C1CCCCC1): 0.35
- photoluminescence quantum yield (in CC(=O)C(C)(C)C): 0.002
- photoluminescence quantum yield (in CC(C)=O): 0.002
- photoluminescence quantum yield (in CCCCCC): 0.388
- photoluminescence quantum yield (in CCOC(C)=O): 0.008
- photoluminescence quantum yield (in CO): 0.005
- photoluminescence quantum yield (in Cc1ccccc1): 0.32
- photoluminescence quantum yield (in ClC(Cl)Cl): 0.11

Further lines, results first:

- photoluminescence quantum yield (in CC#N): 0.0071
- photoluminescence quantum yield (in CCCCCC): 0
- photoluminescence quantum yield (in CCO): 0.13
- photoluminescence quantum yield (in CCOC(C)=O): 0.0006
- photoluminescence quantum yield (in CO): 0.21
- photoluminescence quantum yield (in ClC(Cl)Cl): 0.011
- photoluminescence quantum yield (in OCC(F)(F)F): 0.33
SMILES: COc1ccc2cc3c(C)cc(=O)oc3cc2c1

- photoluminescence quantum yield (in C1CCCCC1): 0.26
SMILES: CC(C)(C)c1ccc(-c2ccc(C(C)(C)C)cc2)cc1

- photoluminescence quantum yield (in c1ccccc1): 0.358
SMILES: Cc1nc2c(ccc3ccc(O)cc32)oc1=O

- photoluminescence quantum yield (in CC#N): 0.042
SMILES: Cc1ccc(-c2ccc(/C=C/c3cccs3)cn2)nc1

- photoluminescence quantum yield (in C1CCCCC1): 0.005
- photoluminescence quantum yield (in CO): 0.001
SMILES: COc1ccc(/C=C/c2nc3ccccc3s2)cc1
